Laboratory results: patent publication US9169254B2, “Spiroimidazolone derivative” (Chugai Seiyaku Kabushiki Kaisha, priority 2009, dated 2015)

Each compound was assayed against T1, human PTH1 receptor (Homo sapiens, UniProt Q03431) (assay: In vitro cAMP signal activity in HKRK-B7 cells (LLC-PK1 cells overexpressing the human PTH1 receptor)). Conditions: HKRK-B7 cells; compound at 1×10^−3 M; […]; 0.1 µM.
T1 sequence (Q03431 27-593): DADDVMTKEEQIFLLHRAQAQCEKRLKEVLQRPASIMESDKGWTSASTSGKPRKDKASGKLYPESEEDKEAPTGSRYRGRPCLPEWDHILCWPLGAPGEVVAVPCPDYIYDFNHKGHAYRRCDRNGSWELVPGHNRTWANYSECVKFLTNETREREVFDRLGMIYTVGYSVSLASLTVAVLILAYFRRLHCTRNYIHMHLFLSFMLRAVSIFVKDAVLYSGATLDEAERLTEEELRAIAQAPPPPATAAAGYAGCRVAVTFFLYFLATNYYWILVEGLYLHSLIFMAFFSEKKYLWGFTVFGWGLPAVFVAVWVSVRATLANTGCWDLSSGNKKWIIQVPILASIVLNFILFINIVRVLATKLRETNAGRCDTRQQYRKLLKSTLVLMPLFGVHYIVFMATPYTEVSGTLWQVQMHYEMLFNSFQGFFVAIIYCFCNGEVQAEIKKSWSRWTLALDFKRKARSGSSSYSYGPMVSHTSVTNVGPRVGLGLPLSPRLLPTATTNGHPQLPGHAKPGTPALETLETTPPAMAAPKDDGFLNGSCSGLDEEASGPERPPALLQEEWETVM
Assay type: cell-based

For Cc1cc(N(C)C(N)=S)cc(C)c1CCS(=O)(=O)N1CCC2(CC1)N=C([C@H]1CC[C@H](C)CC1)NC2=O [Compound 474, 1-(3,5-Dimethyl-4-{2-[2-(4-methyl-cyclohexyl)-4-oxo-1,3,8-triaza-spiro[4.5]dec-1-ene-8-sulfonyl]-ethyl}-phenyl)-1-methyl-thiourea], the “cAMP production activity (%)” value was 89%.

Same assay, conditions: HKRK-B7 cells; compound at 1×10^−3 M; cAMP produced as percentage of that produced by hPTH(1-34) at 100 nM

In order of falling “cAMP production activity (%)” value:
1. Cc1cc(S(=O)(=O)Nc2cccnc2)ccc1CCS(=O)(=O)N1CCC2(CC1)N=C(c1cccc(C(F)(F)F)c1)NC2=O [Compound 294, 3-methyl-4-{2-[4-oxo-2-(3-trifluoromethyl-phenyl)-1,3,8-triaza-spiro[4.5]dec-1-ene-8-sulfonyl]-ethyl}-N-pyridin-3-yl-benzenesulfonamide]  106%
2. CSCCCCCCCC1=NC2(CCN(S(=O)(=O)/C=C/c3c(C)cc(N(C)C(N)=O)cc3C)CC2)C(=O)N1 [Compound 1022, 1-(3,5-Dimethyl-4-{(E)-2-[2-(7-methylsulfanyl-heptyl)-4-oxo-1,3,8-triaza-spiro[4.5]dec-1-ene-8-sulfonyl]-vinyl}-phenyl)-1-methyl-urea]  105%
3. CCC[C@@H]1CCC[C@H](C2=NC3(CCN(S(=O)(=O)/C=C/c4c(C)cc(N(C)C(N)=O)cc4C)CC3)C(=O)N2)C1 [Compound 1108, 1-(3,5-Dimethyl-4-{(E)-2-[4-oxo-2-((1S,3R)-3-propyl-cyclohexyl)-1,3,8-triaza-spiro[4.5]dec-1-ene-8-sulfonyl]-vinyl}-phenyl)-1-methyl-urea]  99%
4. Cc1cc(NCCO)ccc1CCS(=O)(=O)N1CCC2(CC1)N=C(c1cccc(OC(F)(F)F)c1)NC2=O [Compound 159, 8-{2-[4-(2-Hydroxy-ethylamino)-2-methyl-phenyl]-ethanesulfonyl}-2-(3-trifluoromethoxy-phenyl)-1,3,8-triaza-spiro[4.5]dec-1-en-4-one]  96%
5. [2H]C([2H])([2H])C1([2H])CCC(C2=NC3(CCN([S@TB18](=O)(=O)/C=C/c4c(C)cc(N(C)C(N)=O)cc4C)CC3)C(=O)N2)CC1 (stereo not drawn) [Compound 1110, 1-(3,5-dimethyl-4-{(E)-2-[2-(4-[1,1,1-^2H3]methyl-[4-^2H1]cyclohexyl)-4-oxo-1,3,8-triaza-spiro[4.5]dec-1-ene-8-sulfonyl]-vinyl}-phenyl)-1-methyl-urea]  92%
6. CC(=O)N(CCOCCF)c1cc(C)c(/C=C/S(=O)(=O)N2CCC3(CC2)N=C(C2CCC(CCC(F)(F)F)CC2)NC3=O)c(C)c1 (stereo not drawn) [Compound 551, N-[3,5-dimethyl-4-((E)-2-{4-oxo-2-[4-(3,3,3-trifluoro-propyl)-cyclohexyl]-1,3,8-triaza-spiro[4.5]dec-1-ene-8-sulfonyl}-vinyl)-phenyl]-N-[2-(2-fluoro-ethoxy)-ethyl]-acetamide]  92%
7. Cc1cc(N(C)C(N)=O)cc(C)c1CCS(=O)(=O)N1CCC2(CC1)N=C(C1CCCCCC1)NC2=O [Compound 934, 1-{4-[2-(2-Cycloheptyl-4-oxo-1,3,8-triaza-spiro[4.5]dec-1-ene-8-sulfonyl)-ethyl]-3,5-dimethyl-phenyl}-1-methyl-urea]  87%
8. Cc1cc(C(=O)N2CCN(c3ccccn3)CC2)ccc1CCS(=O)(=O)N1CCC2(CC1)N=C(c1cccc(C(F)(F)F)c1)NC2=O [Compound 361, 8-{2-[2-methyl-4-(4-pyridin-2-yl-piperazine-1-carbonyl)-phenyl]-ethanesulfonyl}-2-(3-trifluoromethyl-phenyl)-1,3,8-triaza-spiro[4.5]dec-1-en-4-one]  82%
9. CNc1cc(C)c(CCS(=O)(=O)N2CCC3(CC2)N=C(c2cccc(SC(F)(F)F)c2)NC3=O)c(C)c1 [Compound 1036, 8-[2-(2,6-dimethyl-4-methylamino-phenyl)-ethanesulfonyl]-2-(3-trifluoromethylsulfanyl-phenyl)-1,3,8-triaza-spiro[4.5]dec-1-en-4-one]  82%
10. Cc1cc(C(=O)N2CCC(O)(CF)CC2)cc(C)c1/C=C/S(=O)(=O)N1CCC2(CC1)N=C(c1ccc(OC(F)(F)F)c(OCCCC(F)(F)F)c1)NC2=O [Compound 1273, 8-{(E)-2-[4-(4-fluoromethyl-4-hydroxy-piperidine-1-carbonyl)-2,6-dimethyl-phenyl]-ethenesulfonyl}-2-[3-(4,4,4-trifluoro-butoxy)-4-trifluoromethoxy-phenyl]-1,3,8-triaza-spiro[4.5]dec-1-en-4-one]  81%
11. Cc1cc(N(C)C(N)=O)cc(C)c1CCS(=O)(=O)N1CCC2(CC1)N=C(CCCCCCCCCC(N)=O)NC2=O [Compound 1363, 10-(8-{2-[2,6-dimethyl-4-(1-methyl-ureido)-phenyl]-ethanesulfonyl}-4-oxo-1,3,8-triaza-spiro[4.5]dec-1-en-2-yl)-decanoic acid amide]  80%
12. CC(=O)Nc1ccc(CCS(=O)(=O)N2CCC3(CC2)N=C(C2CCC(C)CC2)NC3=O)c(C)c1 (stereo not drawn) [Compound 148, N-(3-methyl-4-{2-[2-(4-methyl-cyclohexyl)-4-oxo-1,3,8-triaza-spiro[4.5]dec-1-ene-8-sulfonyl]-ethyl}-phenyl)-acetamide]  79%
13. Cc1cc(C(=O)N(C)CCCO)cc(C)c1/C=C/S(=O)(=O)N1CCC2(CC1)N=C(c1cccc(C(F)(F)F)c1)NC2=O [Compound 389, N-(3-hydroxy-propyl)-3,5,N-trimethyl-4-{(E)-2-[4-oxo-2-(3-trifluoromethyl-phenyl)-1,3,8-triaza-spiro[4.5]dec-1-ene-8-sulfonyl]-vinyl}-benzamide]  75%
14. Cc1noc(C2CCN(C(=O)c3ccc(CCS(=O)(=O)N4CCC5(CC4)N=C(c4cccc(C(F)(F)F)c4)NC5=O)c(C)c3)CC2)n1 [Compound 358, 8-(2-{2-methyl-4-[4-(3-methyl-[1,2,4]oxadiazol-5-yl)-piperidine-1-carbonyl]-phenyl}-ethanesulfonyl)-2-(3-trifluoromethyl-phenyl)-1,3,8-triaza-spiro[4.5]dec-1-en-4-one]  71%
15. CC(=O)Nc1ccc(CCS(=O)(=O)N2CCC3(CC2)N=C(C2CCC(C)(C)CC2)NC3=O)c(C)c1 [Compound 925, N-(4-{2-[2-(4,4-dimethyl-cyclohexyl)-4-oxo-1,3,8-triaza-spiro[4.5]dec-1-ene-8-sulfonyl]-ethyl}-3-methyl-phenyl)-acetamide]  69%
16. Cc1cc(C(=O)N(C)C)ccc1CCS(=O)(=O)N1CCC2(CC1)N=C(Nc1cccc(C(F)(F)F)c1)NC2=O [Compound 1395, 3,N,N-Trimethyl-4-{2-[4-oxo-2-(3-trifluoromethyl-phenylamino)-1,3,8-triaza-spiro[4.5]dec-1-ene-8-sulfonyl]-ethyl}-benzamide]  68%
17. Cc1cc(C(=O)N2CCC(C)(O)CC2)cc(C)c1/C=C/S(=O)(=O)N1CCC2(CC1)N=C(c1ccc(C(F)F)c(F)c1)NC2=O [Compound 1219, 2-(4-difluoromethyl-3-fluoro-phenyl)-8-{(E)-2-[4-(4-hydroxy-4-methyl-piperidine-1-carbonyl)-2,6-dimethyl-phenyl]-ethenesulfonyl}-1,3,8-triaza-spiro[4.5]dec-1-en-4-one]  67%
18. COCC(=O)N(C)c1ccc(/C=C/S(=O)(=O)N2CCC3(CC2)N=C(c2cccc(OC(F)(F)F)c2)NC3=O)c(C)c1 [Compound 450, 2-Methoxy-N-methyl-N-(3-methyl-4-{(E)-2-[4-oxo-2-(3-trifluoromethoxy-phenyl)-1,3,8-triaza-spiro[4.5]dec-1-ene-8-sulfonyl]-vinyl}-phenyl)-acetamide]  56%
19. Cc1cc(CN(C)C(N)=O)cc(C)c1/C=C/S(=O)(=O)N1CCC2(CC1)N=C(C1CCC(C)CC1)NC2=O (stereo not drawn) [Compound 1301, 1-(3,5-dimethyl-4-{(E)-2-[2-(4-methyl-cyclohexyl)-4-oxo-1,3,8-triaza-spiro[4.5]dec-1-ene-8-sulfonyl]-vinyl}-benzyl)-1-methyl-urea]  49%
20. CC(C)COC(=O)Nc1ccc(CCS(=O)(=O)N2CCC3(CC2)N=C(C2CCCCC2)NC3=O)c(C(F)(F)F)c1 [Compound 661, {4-[2-(2-cyclohexyl-4-oxo-1,3,8-triaza-spiro[4.5]dec-1-ene-8-sulfonyl)-ethyl]-3-trifluoromethyl-phenyl}-carbamic acid isobutyl ester]  45%
21. O=C1NC(c2ccc(Cl)cc2Cl)=NC12CCN(S(=O)(=O)c1ccc(Cl)cc1)CC2 [Compound 44, 8-(4-Chloro-benzenesulfonyl)-2-(2,4-dichloro-phenyl)-1,3,8-triaza-spiro[4.5]dec-1-en-4-one]  25%
22. O=C(c1ccc2ncccc2c1)N1CCCC(C2=NC3(CCN(S(=O)(=O)CCc4cccc5ccccc45)CC3)C(=O)N2)C1 (stereo not drawn) [Compound 431, 8-(2-naphthalen-1-yl-ethanesulfonyl)-2-[1-(quinoline-6-carbonyl)-piperidin-3-yl]-1,3,8-triaza-spiro[4.5]dec-1-en-4-one]  14%
23. CC(C)(C)C1=NC2(CCN(S(=O)(=O)CCc3cccc4ccccc34)CC2)C(=O)N1 [Compound 36, 2-tert-butyl-8-(2-naphthalen-1-yl-ethanesulfonyl)-1,3,8-triaza-spiro[4.5]dec-1-en-4-one]  3.5%
